Experimental data from US20240199587A1, “HETEROCYCLIC COMPOUNDS” (Hoffmann-La Roche Inc., priority 2021, published 2024).

Each molecule was assayed against T1, MAGL (Homo sapiens, UniProt Q99685) (assay: 2-AG assay (MAGL inhibitory activity, hydrolysis of 2-arachidonoylglycerol to arachidonic acid followed by mass spectrometry)). Settings: 8 μM 2-arachidonoylglycerol, 15 min pre-incubation, 30 min incubation at RT, RapidFire MS readout.
T1 sequence (Q99685 1-303): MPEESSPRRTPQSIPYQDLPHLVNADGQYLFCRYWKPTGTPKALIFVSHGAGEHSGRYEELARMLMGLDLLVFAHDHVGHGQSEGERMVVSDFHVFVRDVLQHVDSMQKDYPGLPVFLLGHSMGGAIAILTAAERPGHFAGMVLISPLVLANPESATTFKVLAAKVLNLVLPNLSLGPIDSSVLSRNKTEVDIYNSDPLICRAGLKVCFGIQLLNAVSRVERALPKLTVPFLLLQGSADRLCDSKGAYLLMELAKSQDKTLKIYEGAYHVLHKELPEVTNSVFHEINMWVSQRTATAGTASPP
Format: biochemical
Description: Compounds of formula (I) were profiled for MAGL inhibitory activity by determining the enzymatic activity by following the hydrolysis of the natural substrate 2-arachidonoylglycerol (2-AG) resulting in arachidonic acid, which can be followed by mass spectrometry. This assay is hereinafter abbreviated “2-AG assay”.
Compounds of formula (I) were profiled for MAGL inhibitory activity by determining the enzymatic activity by following the hydrolysis of the natural substrate 2-arachidonoylglycerol (2-AG) resulting in arachidonic acid, which can be followed by mass spectrometry. This assay is hereinafter abbreviated “2-AG assay”. The 2-AG assay was carried out in 384 well polypropylene assay plates. […] Compound dilutions were added to MAGL protein in assay buffer (50 mM TRIS, 1 mM EDTA, 0.01% (v/v) Tween-20, 2.5% (v/v) DMSO). After shaking, the plate was incubated for 15 min at RT. To start the reaction, 2-arachidonoylglycerol in assay buffer was added. The final concentrations in the assay was […] for MAGL protein and 8 μM 2-arachidonoylglyerol. After shaking and 30 min incubation at RT, the reaction was quenched by the addition of two assay volumes of acetonitrile containing 4 μM of d8-arachidonic acid. The amount of arachidonic acid formed was traced by an online SPE system (Agilent Rapidfire) coupled to a triple quadrupole mass spectrometer. A C18 SPE cartridge (Agilent G9205A) was used in an acetonitrile/water liquid setup. The mass spectrometer was operated in negative electrospray mode following the mass transitions 303.1→259.1 for arachidonic acid and 311.1→267.0 for d8-arachidonic acid. The activity of the compounds was calculated based on the ratio of intensities [arachidonic acid/d8-arachidonic acid].

Row | SMILES | IC50 [nM]
1 | CC(C)(C)c1nc(-c2ccc(C(=O)N3CC4(CC(n5cc(Cl)cn5)C4)C3)cc2)no1 [Example 6, [4-(5-tert-butyl-1,2,4-oxadiazol-3-yl)phenyl]-[6-(4-chloropyrazol-1-yl)-2-azaspiro[3.3]heptan-2-yl]methanone] | 191
2 | CC(C)(C)c1nc(-c2ccc(C(=O)N3CC4(CC(n5cc(C6CC6)cn5)C4)C3)cc2)no1 [Example 7, [4-(5-tert-butyl-1,2,4-oxadiazol-3-yl)phenyl]-[6-(4-cyclopropylpyrazol-1-yl)-2-azaspiro[3.3]heptan-2-yl]methanone] | 215
3 | CC(C)(C)c1nc(-c2ccc(C(=O)N3CC4(CC(n5ccc(C#N)n5)C4)C3)cc2)no1 [Example 8, 1-[2-[4-(5-tert-butyl-1,2,4-oxadiazol-3-yl)benzoyl]-2-azaspiro[3.3]heptan-6-yl]pyrazole-3-carbonitrile] | 485
4 | CC(C)(C)c1nc(-c2ccc(C(=O)N3CC4(CC(n5ccc(C6(C)CC6)n5)C4)C3)cc2)no1 [Example 9, [4-(5-tert-butyl-1,2,4-oxadiazol-3-yl)phenyl]-[6-[3-(1-methylcyclopropyl)pyrazol-1-yl]-2-azaspiro[3.3]heptan-2-yl]methanone] | 613
5 | CC(C)(C)c1nc(-c2ccc(C(=O)N3CC4(CC(n5nccc5C5(C)CC5)C4)C3)cc2)no1 [Example 10, [4-(5-tert-butyl-1,2,4-oxadiazol-3-yl)phenyl]-[6-[5-(1-methylcyclopropyl)pyrazol-1-yl]-2-azaspiro[3.3]heptan-2-yl]methanone] | 33.1
6 | COc1cnn(C2CC3(C2)CN(C(=O)c2ccc(-c4noc(C(C)(C)C)n4)cc2)C3)c1 [Example 11, [4-(5-tert-butyl-1,2,4-oxadiazol-3-yl)phenyl]-[6-(4-methoxypyrazol-1-yl)-2-azaspiro[3.3]heptan-2-yl]methanone] | 1290
7 | CC(C)(C)c1nc(-c2ccc(C(=O)N3CC4(CC(n5cc6c(n5)CCCC6)C4)C3)cc2)no1 [Example 12, [4-(5-tert-butyl-1,2,4-oxadiazol-3-yl)phenyl]-[6-(4,5,6,7-tetrahydroindazol-2-yl)-2-azaspiro[3.3]heptan-2-yl]methanone] | 36.7

Results, then the molecule that gave them:

Row | IC50 [nM] | SMILES
8 | 152 | COc1ccn(C2CC3(C2)CN(C(=O)c2ccc(-c4noc(C(C)(C)C)n4)cc2)C3)n1 [Example 13, [4-(5-tert-butyl-1,2,4-oxadiazol-3-yl)phenyl]-[6-(3-methoxypyrazol-1-yl)-2-azaspiro[3.3]heptan-2-yl]methanone]
9 | 197 | CC(C)(C)c1nc(-c2ccc(C(=O)N3CC4(CC(n5cc6c(n5)CCOC6)C4)C3)cc2)no1 [Example 14, [4-(5-tert-butyl-1,2,4-oxadiazol-3-yl)phenyl]-[6-(6,7-dihydro-4H-pyrano[4,3-c]pyrazol-2-yl)-2-azaspiro[3.3]heptan-2-yl]methanone]
10 | 2670 | CC(C)(C)c1nc(-c2ccc(C(=O)N3CC4(CC(n5cc(F)cn5)C4)C3)cc2)no1 [Example 15, [4-(5-tert-butyl-1,2,4-oxadiazol-3-yl)phenyl]-[6-(4-fluoropyrazol-1-yl)-2-azaspiro[3.3]heptan-2-yl]methanone]
11 | 2810 | CC(C)(C)c1nc(-c2ccc(C(=O)N3CC4(CC(n5nccc5C(F)(F)F)C4)C3)cc2)no1 [Example 16, [4-(5-tert-buty1-1,2,4-oxadiazol-3-yl)phenyl]-[6-[5-(trifluoromethyl)pyrazol-1-yl]-2-azaspiro[3.3]heptan-2-yl]methanone]
12 | 3360 | CC(C)(C)c1nc(-c2ccc(C(=O)N3CC4(CC(n5ncnc5C5CC5)C4)C3)cc2)no1 [Example 17, [4-(5-tert-butyl-1,2,4-oxadiazol-3-yl)phenyl]-[6-(5-cyclopropyl-1,2,4-triazol-1-yl)-2-azaspiro[3.3]heptan-2-yl]methanone]
13 | 3730 | CC(C)(C)c1nc(-c2ccc(C(=O)N3CC4(CC(n5ncc6c5CCOC6)C4)C3)cc2)no1 [Example 18, [4-(5-tert-butyl-1,2,4-oxadiazol-3-yl)phenyl]-[6-(6,7-dihydro-4H-pyrano[4,3-c]pyrazol-1-yl)-2-azaspiro[3.3]heptan-2-yl]methanone]
